According to patent US8207188B2, “Treatment of diseases modulated by a H4 receptor agonist” (priority 2006, dated 2012):
Entries after “also recorded” stand apart in the source; their conditions may differ.

Key:
[1] = tested on: Mouse medullary cells C57B1/6 expressing H4R; assay: Percentage of cells at G0/G1 phase, TRQ racemate and enantiomers with and without CB (Example 21); type: cell-based; details: 10 μM, compared to control (GF only)
Procedure: This experiment was conducted at two concentrations for all TRQ molecules (10 μM and 1 μM) in the presence and absence of CB (10 μM).
Using the assay described in Example 15, above, the effect of TRQ or CB on cells expressing H4R was tested. Mouse medullary cells C57B1/6 expressing H4R (50,000 cells/Petri dish) were incubated in a semi-solid media with haematopoietic growth factors such as IL-3 (10 ng/ml) for 7 days with a TRQ (racemic mixture of RR and SS isomers at 1 μM and 10 μM concentration); purified TRQ isomer E1 (10 μM and 1 μM concentration); purified TRQ isomer E2 (10 μM and 1 μM concentration) and CB (10 μM concentration). […] Similar results were shown with the purified TRQ isomers. In each experiment cells were incubated in the presence of growth factors (GF, FIG. 15).

[2] = tested on: hematopoietic progenitor cells; assay: CFU of hematopoietic progenitor cells in the presence of Ara-C; type: cell-based
From the text: Ara-C is a chemotherapeutic agent that kills cancel cells (or actively dividing cells).

[3] = tested on: human TF1 cells that express H4R; assay: TF1 cell proliferation assay (GM-CSF promoted); type: cell-based; details: Homo sapiens, TF-1, 72 h; 10 μM, 3 days, three separate assays (n=3)
Procedure: Tritoqualine was tested on a cell proliferation assay using human TF1 cells that express H4R.
TF1 cell proliferation is promoted using granulocyte/macrophage colony-stimulating factor (GM-CSF). In this cell proliferation model H4R agonists inhibit cell proliferation. Clobenpropit (CB), a known H4R agonist at a dose of 10^−5M (10 μM) was used as a known cell proliferation inhibition control. […] Each experiment used 100,000 TF1 cells/mL incubated for three days with GM-CSF (10 ng/mL). After addition of TRQ in the range of 10^−5M (10 μM) to 10^−7 M (0.1 μM), and incubation for 3 days, cell proliferation was assessed and compared to that of 10 μM CB.

[4] = target: T1, H4R (Mus musculus, UniProt Q91ZY2); assay: Cell cycle status after H4R silencing with siRNA; type: cell-based; details: 10 μM; H4R siRNA transfected c-kit+ cells
T1 construct: endogenous in cells; host or cells: freshly sorted c-kit+ haematopoietic progenitor cells
T1 sequence (Q91ZY2 1-391): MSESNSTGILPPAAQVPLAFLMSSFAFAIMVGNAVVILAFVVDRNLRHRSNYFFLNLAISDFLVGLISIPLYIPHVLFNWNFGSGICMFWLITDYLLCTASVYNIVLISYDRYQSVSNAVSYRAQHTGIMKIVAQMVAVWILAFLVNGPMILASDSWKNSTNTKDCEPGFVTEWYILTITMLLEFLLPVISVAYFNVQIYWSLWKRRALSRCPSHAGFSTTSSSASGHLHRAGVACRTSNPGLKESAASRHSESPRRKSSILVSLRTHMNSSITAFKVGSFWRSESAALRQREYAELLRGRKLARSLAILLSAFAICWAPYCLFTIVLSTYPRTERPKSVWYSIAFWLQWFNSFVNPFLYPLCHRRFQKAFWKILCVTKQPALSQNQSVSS
Procedure: H4R silencing was performed with freshly sorted c-kit^+ cells. For transfection, 3 μl of HiPerFect reagent (Qiagen; Courtaboeuf, France) and 4 μl ([…]) of human and 8 μl (80 pmol) of murine H4R siRNA, scrambled FITC-labeled or unconjugated control siRNAs (all from Santa Cruz Biotechnology) were incubated in 50 μl x-vivo medium (Cambrex; East Rutherford, N.J.) for 20 min at room temperature. The mixture was then added to 50 μl of cell suspension at a final concentration of 10^6 cells/ml and incubated for 20 h, when transfection efficiency was verified with scrambled FITC-conjugated siRNA. Cells were then centrifuged and resuspended at a concentration of 10^5 cells/ml in StemSpan medium with growth factor cocktail. The extinction of H4R protein expression was ascertained by FACS analysis after 24 h. After 3 days of culture with or without tritoqualine (10 μM) or Clobenpropit (10 μM) cells were counted and their viability was assessed by trypan blue exclusion. The cell cycle status was assessed after an overnight incubation.

[5] = tested on: Mouse medullary cells C57B1/6 expressing H4R; assay: Proliferation of Colony Forming Cells (CFC) in semi-solid media; type: cell-based; details: 10 μM, 7 days
Procedure: Using the assay described in Example 15, above, the effect of TRQ or CB on cells expressing H4R was tested. Mouse medullary cells C57B1/6 expressing H4R (50,000 cells/Petri dish) were incubated in a semi-solid media with haematopoietic growth factors (IL-3: 10 ng/ml) for 7 days with TRQ or CB.
Using the assay described in Example 15, above, the effect of TRQ or CB on cells expressing H4R was tested. Mouse medullary cells C57B1/6 expressing H4R (50,000 cells/Petri dish) were incubated in a semi-solid media with haematopoietic growth factors (IL-3: 10 ng/ml) for 7 days with a TRQ (racemic mixture of RR and SS isomers at 1 μM and 10 μM concentration); TRQ isomer E1 (10 μM concentration); TRQ isomer E2 (10 μM concentration) and CB (10 μM concentration).

[6] = tested on: ckit positive hematopoietic progenitor cells; assay: ckit receptor expression on hematopoietic progenitor cells; type: cell-based; details: 10 μM
From the text: In FIG. 16 the reference to CB-5, E1-5, and E2-5 is the same as above. CKit is a receptor on the surface of hematopoetic cells. Quantifying the ckit receptor is a measure of the differentiation from the progenitor state to the hematopoetic cell state.

[7] = Reintroduction of causal food allergen in food allergy patients; type: in vivo, human; details: baseline patients treated with one drug alone
From the text: Allergens tested came from either […], or ALLERBIO.
The direct test with the Nutella® was strongly positive for allergy. This patient was hospitalized in two occasions for the same dramatic allergic reaction to Nutella® spread. Furthermore, the patient presented allergies to pneumoallergens.
Continuation of the above treatment for over 8 months afforded reversal of allergic and digestive symptoms due to food allergy.
The patient under study had survived two cases of anaphylactic shock due to ingestion of shrimps. […] Later the patient was able to ingest five shrimps without any local signs and no global reaction.
Baseline patients had signs of food allergies and the food allergy symptoms were not adequately managed with an H1 antagonist and cromoglycate. A group of 15 patients presenting signs of food allergies is tested with allergens such as the following: peanut, milk, tomato, potato, flour of wheat, soybean, fish, and shrimp. Allergens tested came from either […], or ALLERBIO.
All patients had history of hospitalization and reactions such as Quincke's edema and asthma crisis. Most of the causal allergens were peanut (six patients), egg (four patients) and soybean (five patients) of them (with other several positive food allergens at different degrees of reaction). […]

SMILES	percentage of cells at the G0/G1 phase / inhibitory activity of cell proliferation [1]	protection of cells / cell CFU in the presence of Ara-C [2]	inhibition at 10 µM [3] [%]	activity inhibiting the cell cycle at the G0/G1 phase after H4R siRNA [4]	inhibition of proliferation of CFC ([5]; Example 16, IL-3 10 ng/ml)	inhibitory activity of cell proliferation (CFC) ([5]; Example 20)	ckit expression [6]	management of food allergy symptoms with the single drug [7]
NC(=NCc1ccc(Cl)cc1)SCCCc1cnc[nH]1 [CB, N′-[(4-chlorophenyl)methyl]-1-[3-(3H-imidazol-4-yl)propylthio]formamidine]	increases the percentage of cells at the G0/G1 phase; also recorded: slightly better inhibitory activity of cell proliferation compared to that of Racemic TRQ	provides protection to the cells	23	reversed	inhibits the proliferation of CFC	inhibits the proliferation of CFC	inhibits of ckit expression	
CC(C)(O)c1ccccc1CC[C@@H](SCC1(CC(=O)O)CC1)c1cccc(/C=C/c2ccc3ccc(Cl)cc3n2)c1 [Montelukast®]								did not yield satisfactory management
